From US4820698A, “Antimicrobial agents and process for their manufacture” (The Procter & Gamble Company, priority 1986, dated 1989) come the findings set out here.

Converted amounts (≈) assume the structure as drawn. Like-named read-outs stand apart in the source and are kept apart here.

Common to all, as to type: cell-based
For experiment [1], the system named is S. Aureus (G+) ATCC 25923. Kind of experiment: In vitro antibacterial activity, standard microdilution MIC assay. A general note: Dilution methods test growth across graded concentrations, often in twofold steps.
Experiment [2] deals with Klebsiella (G-) Pneumoniae ATCC. The experiment is described as above. The method, then:
The in vitro antibacterial activity of several tetraalkyl ethenylidenebisphosphonates, fosfomycin and Penicillin G were tested against various gram-positive and gram-negative bacteria using the standard microdilution Minimum Inhibitory Concentration (MIC) assay as disclosed in Laboratory Procedures in Clinical Microbiology (John A. Washington, editor), 281-311 (1985), incorporated herein by reference.

The subject of experiment [3] is S. Aureus (G+) ATCC 27660. The description is as above. The settings on record: S. Aureus (G+) ATCC 27660, penicillin resistant.
Experiment [4] relates to S. Aureus (G+) ATCC 12715. The description is as above. To be noted: S. Aureus (G+) ATCC 12715, penicillin resistant.
Experiment [5] has as its system P. Aeruginosa (G-) ATCC 27853. The experiment is described as above. The settings on record: P. Aeruginosa (G-) ATCC 27853, penicillin resistant.
Experiment [6] concerns Clostridium (G+) perfringens ATCC 3624. Kind of experiment: microbe, parasite or virus in culture.
Experiment [7] concerns Streptococcus (G+) mutans, clinical isolate (second listed). As to the kind of experiment: In vitro antibacterial activity, standard microdilution MIC assay.
Experiment [8] has as its system Streptococcus (G+) mutans, clinical isolate (third listed). The description is as above.
The subject of experiment [9] is gram-positive microorganisms. Kind of experiment: In vitro antibacterial activity (MIC), comparison with fosfomycin.
The subject of experiment [10] is Streptococcus (G+) mutans, clinical isolate (first listed). Kind of experiment: In vitro antibacterial activity, standard microdilution MIC assay.
Setting [11] is: Staphylococcus aureus, ATCC25923, read-out: MIC.
The mark [12] stands for this setting: Staphylococcus aureus, ATCC27660, read-out: MIC.
The mark [13] stands for this setting: Staphylococcus aureus, ATCC12715, read-out: MIC.
Setting [14] is: Pseudomonas aeruginosa, ATCC27853, read-out: MIC.

As to `C=C(P(=O)(OC)OC)P(=O)(OC)OC` [A, Tetramethyl ethenylidenebisphosphonate], the MIC in experiment [1] is 430 µg/mL (≈ 1760 µM); in [2] it was 405 µg/mL (≈ 1660 µM); in experiment [3], 1,200 μg/ml; in experiment [4], 1,200 μg/ml; in experiment [5], 6,300 μg/ml.
Take `C=C(P(=O)(OCC)OCC)P(=O)(OCC)OCC` [B, Tetraethyl ethenylidenebisphosphonate]: the MIC was 110 µg/mL (≈ 366 µM) in experiment [1]; 160 µg/mL (≈ 533 µM) in [3]; 180 µg/mL (≈ 600 µM) in [4]; 25,000 μg/ml in experiment [5]; 52 µg/mL (≈ 173 µM) in experiment [6].
Regarding `C=C(P(=O)(OCCCC)OCCCC)P(=O)(OCCCC)OCCCC` [C, Tetrabutyl ethenylidenebisphosphonate], the MIC in experiment [1] (setting [11]) came to 4.5 µg/mL (≈ 10.9 µM); in experiment [3] (setting [12]) it was 6.5 µg/mL (≈ 15.8 µM); in experiment [4] (setting [13]), 6.5 µg/mL (≈ 15.8 µM); in experiment [5] (setting [14]), 25000 µg/mL (≈ 60600 µM); in experiment [7], 11 µg/mL (≈ 26.7 µM); in [8] it was 11 µg/mL (≈ 26.7 µM). Further, the MIC in experiment [6] (Clostridium, ATCC3624) came to 2.1 µg/mL (≈ 5.09 µM); in [10] it was 1.2 µg/mL (≈ 2.91 µM). In experiment [9], the “antibacterial efficacy against gram-positive microorganisms compared with fosfomycin” value was “superior to fosfomycin”.
In the case of `C[C@@H]1O[C@@H]1P(=O)(O)O` [D, Fosfomycin, reference compound], the MIC in experiment [1] (setting [11]) turned out to be 56 µg/mL (≈ 406 µM); in experiment [3] (setting [12]), 180 µg/mL (≈ 1300 µM); in experiment [4] (setting [13]), 72 µg/mL (≈ 522 µM); in experiment [5] (setting [14]), 31 µg/mL (≈ 225 µM).
Turning to `CC1(C)S[C@@H]2[C@H](NC(=O)Cc3ccccc3)C(=O)N2[C@H]1C(=O)O` [E, Penicillin G, reference compound], the MIC was 25 µg/mL (≈ 74.8 µM) in experiment [1] (setting [11]), 25000 µg/mL (≈ 74800 µM) in [3] (setting [12]), 19000 µg/mL (≈ 56800 µM) in experiment [4] (setting [13]) and 24000 µg/mL (≈ 71800 µM) in experiment [5] (setting [14]).
